{
  "source": "paper PMC3328449",
  "about": "“Inhibition of Diacylglycerol–Sensitive TRPC Channels by Synthetic and Natural Steroids” (PLoS ONE, 2012)",
  "target": "T1, hTRPC6 (Homo sapiens, UniProt Q9Y210)",
  "T1 construct": "expressed in transfected cells",
  "T1 sequence (Q9Y210 1-931)": "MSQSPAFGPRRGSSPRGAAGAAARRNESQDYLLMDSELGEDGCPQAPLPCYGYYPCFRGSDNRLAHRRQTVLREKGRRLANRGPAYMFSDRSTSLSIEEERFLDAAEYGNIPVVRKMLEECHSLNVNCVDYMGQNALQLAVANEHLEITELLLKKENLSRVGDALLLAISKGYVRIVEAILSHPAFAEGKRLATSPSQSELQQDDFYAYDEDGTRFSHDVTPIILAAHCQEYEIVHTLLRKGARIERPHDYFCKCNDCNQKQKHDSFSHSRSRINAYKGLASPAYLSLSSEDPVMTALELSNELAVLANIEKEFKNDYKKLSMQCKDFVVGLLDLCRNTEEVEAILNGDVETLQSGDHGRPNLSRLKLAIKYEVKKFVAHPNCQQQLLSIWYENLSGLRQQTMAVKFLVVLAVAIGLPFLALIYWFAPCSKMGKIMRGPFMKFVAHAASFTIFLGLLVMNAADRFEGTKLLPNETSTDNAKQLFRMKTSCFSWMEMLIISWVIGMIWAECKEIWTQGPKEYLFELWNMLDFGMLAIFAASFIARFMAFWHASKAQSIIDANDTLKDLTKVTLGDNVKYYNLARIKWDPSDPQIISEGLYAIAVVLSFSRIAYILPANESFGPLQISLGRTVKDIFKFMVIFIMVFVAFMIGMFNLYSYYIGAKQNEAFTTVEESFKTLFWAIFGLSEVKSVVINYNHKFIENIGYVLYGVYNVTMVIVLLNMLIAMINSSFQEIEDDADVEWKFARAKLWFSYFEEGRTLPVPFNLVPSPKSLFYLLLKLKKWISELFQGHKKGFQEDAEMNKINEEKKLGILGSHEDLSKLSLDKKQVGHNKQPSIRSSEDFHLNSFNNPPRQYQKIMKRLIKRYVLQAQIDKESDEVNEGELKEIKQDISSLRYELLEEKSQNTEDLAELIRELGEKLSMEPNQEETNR",
  "assay": "Whole-cell patch clamp, AlF4- evoked TRPC6 currents",
  "assay_type": "cell-based",
  "method": "Cells were grown at 37°C in a humidified atmosphere (5% or 7% CO2) under standard cell culture conditions. Stable human embryonic kidney (HEK) cell lines expressing recombinant mTRPC4ß (GenBank accession number AAC05178); mTRPC5 (GenBank accession number NM_009428) or hTRPC6 (GenBank accession number AF080394) under the control of a tetracycline-inducible promoter were generated using the Flp-In T-Rex (FITR) system (Invitrogen, Karlsruhe, Germany). TRPC4/5/6 HEK-FITR cells were maintained in Dulbecco's modified eagle medium (DMEM, with glutaMAX I, 4.5 g/l glucose and […] sodium pyruvate) supplemented with 10% (v/v) fetal bovine serum (Biochrom, Berlin, Germany), 1 mM glutamine, 1 mM MEM sodium pyruvate, 40 µg/ml hygromycin (50 µg/ml for mTRPC5 HEK-FITR cells), and 15 µg/ml blasticidine HCl. Channel expression was induced by supplementing the growth medium for 18–24 h with 1 µg/ml doxycycline.\nThe whole-cell patch clamp technique was employed to measure ion currents from single cells. […]\nCells grown on poly-L-lysine-coated coverslips were continuously superfused with extracellular solution and substances were applied using an ALA BPS-8 perfusion system (ALA Scientific Instruments, Westbury, USA). […] Cells were held at −70 mV, and current-voltage (I–V) relationships were routinely measured every 2 or 3 s by applying voltage ramps (180 ms) from −100 mV to +80 mV. […]\nFor statistical analysis, analysis of variance was performed with Origin 6.0 software (Microcal Software Inc., Northampton, USA). […] IC50 were calculated with SigmaPlot (Systat software, San Jose, USA) using the sigmoidal Hill-model: f = 100 (C^n/(IC50 ^n+C^n)); where f is the inhibition, C is the applied drug concentration and n is the Hill coefficient. The half maximal effective concentration (EC50) of norgestimate-induced vasorelaxation was calculated analogously with R = y0+y1C^n/(EC50 ^n+C^n); where R is relaxation, yo and y1 are constants, C is the applied drug concentration and n is the Hill coefficient. Averaged data is expressed as means ± SEM.",
  "note": "“And” between values parts separate entries of the source, which are not always exact repeats. Equal entries are not always repeated.",
  "data": [
    {"smiles": "C#C[C@]1(OC(C)=O)CC[C@H]2[C@@H]3CCC4=CC(=NO)CC[C@@H]4[C@H]3CC[C@@]21CC", "note": "(mixture of isomers) [norgestimate]", "values": [
      {"measurement": "Inhibition of TRPC6 currents", "setting": "10 µM, whole-cell patch clamp, AlF4- infusion", "value": "almost completely inhibited"},
      {"measurement": "Hill slope, TRPC6 current inhibition", "setting": "fit to dose-response equation", "value": 1.19},
      {"measurement": "IC50", "setting": "whole-cell patch clamp, AlF4- infusion, read-out: IC50, TRPC6 current inhibition", "value": "3.06 µM and ~3 µM"}
    ]}
  ]
}
